Patent US20070010478A1 (priority 2005, published 2007)

What was measured:
P450 isoenzyme 3A4 = P450 isoenzyme 3A4 (Homo sapiens, UniProt P08684); settings: cited from earlier work
P-gp = biological target: T1, P-gp (Homo sapiens, UniProt P08183); assay: cellular P-gp function, DiOC2 accumulation assay with flow cytometry, in AML patients; type: in vivo; settings: circulating NK cells and leukemic blasts; 700 mg/day continuous iv infusion
T1 construct: endogenous in cells; host or cells: circulating NK cells and leukemic blasts of AML patients
Protocol: Cytarabine was also administered (100 mg/m^2/day) starting after the first dose of daunorubicin as a continuous intravenous infusion on days 1-7. Blood samples were taken at intervals for pharmacokinetic and pharmacodynamic studies. Pharmacokinetic drug determinations were conducted by HPLC. Pharmacodynamic assessments of cellular P-gp function were conducted using an accumulation assay with DiOC2 and flow cytometry. P-gp function was assessed on circulating natural killer (NK) cells and leukemic blasts. […] Means of 3 patients for each time point are shown.

P450 isoenzyme 3A4, sequence (P08684 whole entry, the tested form may be a part): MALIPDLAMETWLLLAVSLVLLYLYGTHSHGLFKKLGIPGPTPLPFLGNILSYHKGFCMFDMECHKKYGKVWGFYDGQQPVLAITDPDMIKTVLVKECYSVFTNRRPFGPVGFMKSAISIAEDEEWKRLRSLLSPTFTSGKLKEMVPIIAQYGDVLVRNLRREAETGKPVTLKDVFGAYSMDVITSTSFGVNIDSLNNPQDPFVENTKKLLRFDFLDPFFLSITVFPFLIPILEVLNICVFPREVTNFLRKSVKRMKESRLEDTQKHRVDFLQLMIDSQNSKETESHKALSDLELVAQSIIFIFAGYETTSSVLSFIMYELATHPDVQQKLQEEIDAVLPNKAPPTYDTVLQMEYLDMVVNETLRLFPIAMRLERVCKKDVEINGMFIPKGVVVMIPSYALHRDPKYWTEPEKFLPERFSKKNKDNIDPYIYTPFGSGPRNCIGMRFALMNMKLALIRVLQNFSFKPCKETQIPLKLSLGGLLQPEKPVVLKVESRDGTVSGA
T1 sequence (P08183 whole entry, the tested form may be a part): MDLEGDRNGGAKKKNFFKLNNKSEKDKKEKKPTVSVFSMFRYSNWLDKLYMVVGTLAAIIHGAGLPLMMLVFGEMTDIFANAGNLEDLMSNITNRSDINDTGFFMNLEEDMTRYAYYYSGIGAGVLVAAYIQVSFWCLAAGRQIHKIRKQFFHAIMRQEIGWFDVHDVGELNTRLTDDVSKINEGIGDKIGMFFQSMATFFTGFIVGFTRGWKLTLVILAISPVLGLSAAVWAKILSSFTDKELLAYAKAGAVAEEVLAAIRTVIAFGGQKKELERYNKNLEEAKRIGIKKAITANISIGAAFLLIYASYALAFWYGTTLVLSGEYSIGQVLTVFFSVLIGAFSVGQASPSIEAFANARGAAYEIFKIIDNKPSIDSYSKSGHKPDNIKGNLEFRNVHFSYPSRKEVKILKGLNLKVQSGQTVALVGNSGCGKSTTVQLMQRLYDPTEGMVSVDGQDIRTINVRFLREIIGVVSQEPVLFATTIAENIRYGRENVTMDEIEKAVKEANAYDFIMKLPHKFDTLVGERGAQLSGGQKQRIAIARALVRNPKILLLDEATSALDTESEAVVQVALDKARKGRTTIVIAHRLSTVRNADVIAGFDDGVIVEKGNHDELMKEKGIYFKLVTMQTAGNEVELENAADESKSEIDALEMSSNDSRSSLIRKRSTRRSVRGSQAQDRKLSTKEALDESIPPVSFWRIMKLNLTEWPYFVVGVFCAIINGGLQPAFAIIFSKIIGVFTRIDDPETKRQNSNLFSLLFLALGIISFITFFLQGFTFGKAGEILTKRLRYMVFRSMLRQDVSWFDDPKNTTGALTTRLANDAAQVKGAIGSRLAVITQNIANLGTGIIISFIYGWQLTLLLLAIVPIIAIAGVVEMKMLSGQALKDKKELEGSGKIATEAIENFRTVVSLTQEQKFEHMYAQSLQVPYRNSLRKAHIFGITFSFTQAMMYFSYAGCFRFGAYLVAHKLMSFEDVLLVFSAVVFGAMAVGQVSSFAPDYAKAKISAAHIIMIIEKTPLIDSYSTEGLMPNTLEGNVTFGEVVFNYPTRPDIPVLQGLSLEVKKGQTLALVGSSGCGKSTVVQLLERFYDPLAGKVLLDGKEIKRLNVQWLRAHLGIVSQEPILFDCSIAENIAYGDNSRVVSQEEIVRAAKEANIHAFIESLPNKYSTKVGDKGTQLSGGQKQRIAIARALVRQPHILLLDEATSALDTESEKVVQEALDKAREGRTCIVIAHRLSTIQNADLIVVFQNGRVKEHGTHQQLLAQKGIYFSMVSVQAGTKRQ

SMILES | substrate for the P450 isoenzyme 3A4 (P450 isoenzyme 3A4) | time to potent inhibition of P-gp function after start of zosuquidar infusion (P-gp)
COc1cc(C(=O)C(=O)N2CCCC[C@H]2C(=O)OC(CCCc2cccnc2)CCCc2cccnc2)cc(OC)c1OC [biricodar] | substrates for the P450 isoenzyme 3A4 | –
C/C=C/C[C@@H](C)C(=O)[C@H]1C(=O)N[C@@H](C(C)C)C(=O)N(C)CC(=O)N(C)[C@@H](CC(C)C)C(=O)N[C@@H](C(C)C)C(=O)N(C)[C@@H](CC(C)C)C(=O)N[C@@H](C)C(=O)N[C@H](C)C(=O)N(C)[C@@H](CC(C)C)C(=O)N(C)[C@@H](CC(C)C)C(=O)N(C)[C@@H](C(C)C)C(=O)N1C [valspodar] | substrates for the P450 isoenzyme 3A4 | –
O[C@@H](COc1cccc2ncccc12)CN1CCN([C@@H]2c3ccccc3[C@@H]3[C@H](c4ccccc42)C3(F)F)CC1 [zosuquidar] | – | ≤ 2 h
